Laboratory results from patent US4088772A, “Methanodibenzocycloheptapyrroles” (E. I. Du Pont de Nemours and Company, priority 1975, dated 1978).
Where a name gives a salt, the structure may show the parent alone. Read-outs that look alike come from different tables or passages of the source.

Columns and labels:
in vivo = conditions: mouse, in vivo, po
female white mice = assay: animal or person; conditions: Mus musculus, po
female CF1 S mice = assay: Mouse spontaneous motor activity (activity cage); format: in vivo, mouse (CF1 S female); conditions: 0.5 h, Table 1, oral, mice, 30 minutes after dosing, read-out: Exploratory Loss Activity Cage ED50
Description: Mouse Spontaneous Motor Activity (Activity Cage)
Twenty-four per dose, 16- 20 g or 18-22 g, female CF1 S mice, fasted 16- 22 hours, are intubated (in pairs) with drug at t doses such as 0, 1, 3, 9, 27 and 81 mg/kg in 10 ml/kg of aqueous 1% methylcellulose. The mice are then put in separate "shoe-box" cages (12 × 7.5 × 5.3 inches plastic with a 0.33 inch mesh stainless steel lid), and 20 minutes after intubation the animals in pairs are moved to covered Woodard Photoelectric Activity Chambers (central light source type measurement floor area = 96 in^2). Ten minutes later (30 minutes after dosing) a 5-minute count is taken. Counting chamber characteristics are balanced out by counting 2 pairs of mice from each dose level in each of 6 different counting chambers. Half of each test is run in the a.m. and the other half is run in the p.m. to minimize "biological clock" variations.
Canad. Biol. 20, 239-50 (1961), raw counts are thus transformed for statistical treatment (Student's t test). The means of the square roots then are squared and an ED50 for stimulation or depression (or both) is determined graphically.

[1] = test system: phenylquinone-induced writhing; assay: Phenylquinone writhing test (analgesia); format: in vivo, mouse (Carworth CF1 S female); conditions: Mus musculus
Description: This mouse test is predictive of analgesic response in humans. [E. Siegmund, R. Cadmus and G. Lee, Proc. Soc.
ED50 values were obtained graphically from the data.

[2] = read-out: Catatonia ED50, Table 1, oral, mice
[3] = read-out: Exploratory Loss Visual ED50, Table 1, oral, mice
[4] = read-out: Muscle Tone ED50, Table 1, oral, mice
[5] = read-out: Ptosis ED50, Table 1, oral, mice
[6] = read-out: Reflexes Grip ED50, Table 1, oral, mice
[7] = read-out: Reflexes Lift ED50, Table 1, oral, mice
[8] = read-out: Reflexes Pinna ED50, Table 1, oral, mice
[9] = read-out: Catatonia ED50, Table III, oral, mice
[10] = read-out: Exploratory Loss Visual ED50, Table III, oral, mice
[11] = read-out: Muscle Tone ED50, Table III, oral, mice
[12] = read-out: Ptosis ED50, Table III, oral, mice
[13] = read-out: Reflexes Grip ED50, Table III, oral, mice
[14] = read-out: Reflexes Lift ED50, Table III, oral, mice
[15] = read-out: Reflexes Pinna ED50, Table III, oral, mice

Row | SMILES | ED50 (in vivo) [mg/kg] | LD50 at 24 h (in vivo) [mg/kg] | ED50 (female white mice; [2]) [mg/kg] | ED50 (female white mice; [3]) [mg/kg] | ED50 (female white mice; [4]) [mg/kg] | ED50 (female white mice; [5]) [mg/kg] | ED50 (female white mice; [6]) [mg/kg] | ED50 (female white mice; [7]) [mg/kg] | ED50 (female white mice; [8]) [mg/kg] | ED50 ([1]; po, Table 1, mice) [mg/kg] | other results
1 | c1ccc(CN2CC3c4ccccc4C4CC3(C2)c2ccccc24)cc1 (stereo not shown) [Example 4, 2-Benzyl-2,3,8,12b-tetrahydro-1H-3a,8-methanodibenzo[3,4:6,7]cyclohepta[1,2-c]pyrrole] | > 324 | > 324 | 20 | 20 | 20 | 20 | > 324 | 36 | 300 | 9.4 | ED50 (female CF1 S mice): 4.6 mg/kg
2 | c1ccc2c(c1)[C@@H]1C[C@@]3(CN(C[C@@H]4C[C@H]5CC[C@@H]4C5)C[C@H]23)c2ccccc21 (relative stereo) [Example 35, 2-(2-Exo-bicyclo[2.2.1]heptylmethyl)-2,3,8,12b-tetrahydro-1H-3a,8-methanodibenzo[3,4:6,7]cyclohepta[1,2-c]pyrrole] | > 324 | > 324 | 15 | 8.6 | 12 | 5.1 | > 324 | 29 | 21 | 6.2 | ED50 (female CF1 S mice): 3.3 mg/kg
3 | C1=C(CN2CC3c4ccccc4C4CC3(C2)c2ccccc24)CCCC1 (stereo not shown) [Example 26, 2-(1-Cyclohexenylmethyl)-2,3,8,12b-tetrahydro-1H-3a,8-methanodibenzo[3.4:6,7]cyclohepta[1,2-c]pyrrole] | > 324 | > 324 | 10 | 12 | 7 | 6 | 400 | 15 | 15 | 6.8 | ED50 (female CF1 S mice): 0.8 mg/kg
4 | CCCCCN1C[C@@H]2c3ccccc3[C@@H]3C[C@@]2(C1)c1ccccc13 (relative stereo) [Example 59, 2-n-Pentyl-2,3,8,12b-tetrahydro-1H-3a,8-methanodibenzo[3,4:6,7]cyclohepta[1,2-c]pyrrole] | – | > 324 | 17 | 8.4 | 13 | 4.5 | 100 | 19 | 8 | – | ED50 ([1]; Table 1, oral, mice): 8.2 mg/kg
5 | c1ccc2c(c1)[C@@H]1C[C@@]3(CN(CC4CCCCCCC4)C[C@H]23)c2ccccc21 (relative stereo) [Example 34, 2-Cyclooctylmethyl-2,3,8,12b-tetrahydro-1H-3a,8-methanodibenzo[3,4:6,7]cyclohepta[1,2-c]pyrrole] | > 324 | > 324 | 23 | 40 | 21 | 4 | > 324 | 62 | 97 | 6 | –
6 | CC(C)(C)N1C[C@@H]2c3ccccc3[C@@H]3C[C@@]2(C1)c1ccccc13 (relative stereo) [Example 56, 2-Tertiarybutyl-2,3,8,12b-tetrahydro-1H-3a,8-methanodibenzo[3,4:6,7]cyclohepta[1,2-c]pyrrole] | – | 300 | 200 | 200 | 100 | 100 | 100 | 60 | 200 | – | ED50 (in vivo; Tremors ED50, Table 1, mice): 200 mg/kg; ED50 ([1]; Table 1, oral, mice): 45 mg/kg
7 | c1ccc2c(c1)C1CC3(CN(CCC4CCCC4)CC23)c2ccccc21 (stereo not shown) [Example 22, 2-(2-Cyclopentylethyl)-2,3,8,12b-tetrahydro-1H-3a,8-methanodibenzo[3,4:6,7]cyclohepta[1,2-c]pyrrole] | > 324 | > 324 | 18 | 32 | 3.6 | – | 265 | 17 | 11 | 10 | ED50 (female white mice; read-out: Ptosis ED50, Table 1, Extrapolated value): 3 mg/kg
8 | CCCN1C[C@@H]2c3ccccc3[C@@H]3C[C@@]2(C1)c1ccccc13 (relative stereo) [Example 58, 2-n-Propyl-2,3,8,12b-tetrahydro-1H-3a,8-methanodibenzo[3,4:6,7]cyclohepta[1,2-c]pyrrole] | – | 200 | 7 | 7 | 7 | 7 | 60 | 7 | 4 | – | ED50 ([1]; Table 1, oral, mice): 2.9 mg/kg
9 | N#Cc1ccc2c(c1)[C@]13C[C@H]2c2ccccc2[C@H]1CN(CC1CCCC1)C3 (relative stereo) [Example 85, 5-Cyano-2-cyclopentylmethyl-2,3,8,12b-tetrahydro-1H-3a,8-methanodibenzo[3,4:6,7]cyclohepta[1,2-c]-pyrrole Hydrochloride] | – | 300 | – | – | – | – | – | – | – | – | ED50 (female white mice; [9]): 15 mg/kg; ED50 (female white mice; [10]): 4.4 mg/kg; ED50 (female white mice; [11]): 15 mg/kg; ED50 (female white mice; [12]): 4.4 mg/kg; ED50 (female white mice; [13]): > 324 mg/kg; ED50 (female white mice; [14]): 17 mg/kg; ED50 (female white mice; [15]): 9.7 mg/kg; ED50 ([1]; po, Table III, mice): 1.7 mg/kg
10 | C=CCN1CC2c3ccccc3C3CC2(C1)c1ccccc13 (stereo not shown) [Example 10, 2-Allyl-2,3,8,12b-tetrahydro-1H-3a,8-methanodibenzo-[3,4:6,7]cyclohepta[1,2-c]pyrrole] | – | > 324 | 5 | 4.5 | 3.2 | < 3 | 150 | 6 | 4 | – | ED50 (in vivo; Tremors ED50, Table 1, mice): 187 mg/kg; ED50 ([1]; Table 1, oral, mice): 1.9 mg/kg
11 | CC1CCCC1CN1C[C@@H]2c3ccccc3[C@@H]3C[C@@]2(C1)c1ccccc13 (stereo partly shown) [Example 51, 2-(2-Methylcyclopentylmethyl)-2,3,8,12b-tetrahydro-1H-3a,8-methanodibenzo[3,4:6,7]cyclohepta[1,2-c]pyrrole] | > 324 | > 324 | 60 | 100 | 60 | 36 | 300 | 60 | 36 | 10 | –
12 | C1=C[C@@H]2C[C@H]1C[C@@H]2CN1C[C@@H]2c3ccccc3[C@@H]3C[C@@]2(C1)c1ccccc13 (relative stereo) [Example 38, 2-(2-Endo-bicyclo[2.2.1]hept-5-enylmethyl)-2,3,8,12b-tetrahydro-1H-3a,8-methanodibenzo[3,4:6,7]cyclohepta[1,2-c]pyrrole] | > 324 | > 324 | 100 | 200 | 200 | 60 | > 324 | 200 | > 324 | 31 | –
13 | O=C(O)c1ccc2c(c1)[C@]13C[C@H]2c2ccccc2[C@H]1CN(CC1CCCC1)C3 (relative stereo) [Example 73, 2-Cyclopentylmethyl-2,3,8,12b-tetrahydro-1H-3a,8-methanodibenzo[3,4:6,7]cyclohepta[1,2-c]pyrrole-5-carboxylic Acid Hydrochloride] | – | > 324 | – | – | – | – | – | – | – | – | ED50 (female white mice; [9]): 60 mg/kg; ED50 (female white mice; [10]): 60 mg/kg; ED50 (female white mice; [11]): 36 mg/kg; ED50 (female white mice; [12]): 36 mg/kg; ED50 (female white mice; [13]): > 324 mg/kg; ED50 (female white mice; [14]): 100 mg/kg; ED50 (female white mice; [15]): 36 mg/kg; ED50 ([1]; po, Table III, mice): 21 mg/kg
14 | Brc1ccc2c(c1)[C@]13C[C@H]2c2ccccc2[C@H]1CN(CC1CCCC1)C3 (relative stereo) [Example 70, 5-Bromo-2-cyclopentylmethyl-2,3,8,12b-tetrahydro-1H-3a,8-methanodibenzo[3,4:6,7]cyclohepta[1,2-c]pyrrole Hydrochloride] | – | > 324 | – | – | – | – | – | – | – | – | ED50 (female white mice; [9]): 12 mg/kg; ED50 (female white mice; [10]): 20 mg/kg; ED50 (female white mice; [11]): 12 mg/kg; ED50 (female white mice; [12]): 7 mg/kg; ED50 (female white mice; [13]): > 324 mg/kg; ED50 (female white mice; [14]): 20 mg/kg; ED50 (female white mice; [15]): 7 mg/kg; ED50 ([1]; po, Table III, mice): < 130 mg/kg
15 | C1=CCC(CN2CC3c4ccccc4C4CC3(C2)c2ccccc24)=CC1 (stereo not shown) [Example 28, 2-(1,4-Cyclohexadienylmethyl)-2,3,8,12b-tetrahydro-1H-3a,8-methanodibenzo[3,4:6,7]cyclohepta[1,2-c]pyrrole] | > 324 | > 324 | 24 | 29 | 37 | 17 | > 324 | 57 | 32 | 8.6 | –
